Where two headings read alike, the source gives them in different places.
Experiments:
Type in all cases: cell-based
[1] = test system: BT-474 cells (HER2 overexpressing cell line); experiment: BT-474 cell proliferation inhibitory activity (CellTiter-Glo, 120 hours)
Method: To evaluate the cell proliferation inhibitory activity of the compound according to the present invention on HER2 and EGFR kinases, the following method was performed using HER2 overexpressing cell lines (SK-BR-3, BT-474, and N-87) and EGFR expressing cell line (HaCaT).
McCOY'S 5A supplemented with 10% FBS was used for SK-BR-3 cells, RPMI-1640 medium supplemented with 20% FBS was used for BT-474 cancer cells, and RPMI-1640 medium supplemented with 10% FBS was used for N-87 cancer cells. DMEM supplemented with 10% FBS was used for HaCaT cells.
For SK-BR-3 cells, 5000 cells were aliquoted into each well of a white clear bottom 96 well plate (Corning) 48 hours before treatment with the compounds of Examples. For BT-474 cells, 5000 cells were aliquoted into each well of a white clear bottom 96 well plate (Corning) 48 hours before treatment with the compounds of Examples. For N-87 cells, 5000 cells were aliquoted into each well of a white clear bottom 96 well plate (Corning) 24 hours before treatment with the compounds of Examples. For HaCaT cells, 3000 cells were aliquoted into each well of a white clear bottom 96 well plate (Corning) 24 hours before treatment with the compounds of Examples. For SK-BR-3 cells and BT-474 cells, the compounds of Examples were diluted in dimethyl sulfoxide (three-fold dilution, a total of 11 concentrations) and injected each in an amount of 1 μl to a final concentration of 0.2 nM to 10 μM. For N-87 cells, the compounds of Examples were diluted in dimethyl sulfoxide (five-fold dilution, a total of 11 concentrations) and injected each in an amount of 0.5 μl to a final concentration of […] to 5 μM. For HaCaT cells, the compounds of Examples were diluted in dimethyl sulfoxide (three-fold dilution, a total of 11 concentrations) and injected each in an amount of 0.5 μl to a final concentration of 0.8 nM to 45 μM. For the measurement of living cells, the cells were stored at room temperature for 10 minutes using CellTiter-Glo cell viability reagent (Promega) after a certain period of time (SK-BR-3: 120 hours, BT-474: 120 hours, N-87: 72 hours, and HaCaT: 72 hours) post treatment with the compounds of Examples, and the luminescence intensity thereof was measured using a reader (SynergyNeo, Biotek). Each test was repeated three times.
The result values were calculated as a cell growth rate (%) compared to those of the control group. A graph was created using the GraphPad Prism version 5.0 program, and GI50 values were calculated.

[2] = test system: HaCaT cells (EGFR expressing cell line); experiment: HaCaT cell proliferation inhibitory activity (CellTiter-Glo, 72 hours)
In short: (§1)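 Three independent repeats measured growth inhibition across 11 concentrations. The top final concentration was 10 μM for SK-BR-3 and BT-474, 5 μM for N-87 and 45 μM for HaCaT. Growth relative to control, read by luminescence, yielded GI50.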

[3] = test system: SK-BR-3 cells (HER2 overexpressing cell line); experiment: SK-BR-3 cell proliferation inhibitory activity (CellTiter-Glo, 120 hours); details: Homo sapiens
In short: as §1

| GI50 ([1]; Homo sapiens) [nM] | GI50 [1] [nM] | GI50 [3] [nM] | Compound | GI50 ([2]; Homo sapiens) [nM] | GI50 [2] [nM] |
| --- | --- | --- | --- | --- | --- |
| ≤ 150 |  |  | C=CC(=O)N1CCC(F)(F)C(Oc2cc(OC)cc3ncnc(Nc4cc(-c5ccco5)ccc4OC)c23)C1 (stereo not shown) [Example 53, 1-(4,4-difluoro-3-((4-((5-(furan-2-yl)-2-methoxyphenyl)amino)-7-methoxy-quinazolin-5-yl)oxy)piperidin-1-yl)prop-2-en-1-one] | ≤ 150 |  |
| ≤ 150 |  |  | C=CC(=O)N1CCC(Oc2cc3c(Nc4cc(-c5ccc(F)o5)ccc4OC)ncnc3cc2OC)CC1 [Example 88, 1-(4-((4-((5-(5-fluorofuran-2-yl)-2-methoxyphenyl)amino)-7-methoxy-quinazolin-6-yl)oxy)piperidin-1-yl)prop-2-en-1-one] | ≤ 150 |  |
|  | ≤ 150 |  | C=CC(=O)N1CCC(Oc2cc(OC)cc3ncnc(Nc4cc(-c5ccco5)ccc4OC)c23)C(F)(F)C1 (stereo not shown) [Example 99, 1-(3,3-difluoro-4-((4-((5-(furan-2-yl)-2-methoxyphenyl)amino)-7-methoxy-quinazolin-5-yl)oxy)piperidin-1-yl)prop-2-en-1-one] |  | ≤ 150 |
|  | ≤ 150 |  | C=CC(=O)N1CCC(F)(F)C(Oc2cc(OC)cc3ncnc(Nc4cc(-c5ccc(F)cc5F)ccc4OC)c23)C1 (stereo not shown) [Example 100, 1-(3-((4-((2′,4′-difluoro-4-methoxy-[1,1′-biphenyl]-3-yl)amino)-7-methoxy-quinazolin-5-yl)oxy)-4,4-difluoro-piperidin-1-yl)prop-2-en-1-one] |  | ≤ 150 |
| 150 to 1000 |  |  | C=CC(=O)N1CC[C@H](Oc2cc3c(Nc4cc(-c5ccc(F)cc5F)ccc4OC)ncnc3cc2OC)[C@@H](F)C1 [Example 152, 1-((3S,4S)-4-((4-((2′,4′-difluoro-4-methoxy-[1,1′-biphenyl]-3-yl)amino)-7-methoxy-quinazolin-6-yl)oxy)3-fluoropiperidin-1-yl)prop-2-en-1-one] | 150 to 1000 |  |
| 150 to 1000 |  |  | C=CC(=O)N1CCC(Oc2cc3c(Nc4cc(-c5ccc6c(c5)OCO6)ccc4OC)ncnc3cc2OC)CC1 [Example 153, 1-(4-((4-((5-(benzo[d][1,3]dioxol-5-yl)-2-methoxyphenyl)amino)-7-methoxy-quinazolin-6-yl)oxy)piperidin-1-yl)prop-2-en-1-one] | > 1000 |  |
| ≤ 150 |  |  | C=CC(=O)N1CC[C@H](Oc2cc3c(Nc4cc(-c5ccco5)ccc4OC)ncnc3cc2OC)[C@@H](F)C1 [Example 174, 1-((3S,4S)-3-fluoro-4-((4-((5-(furan-2-yl)-2-methoxyphenyl)amino)-7-methoxy-quinazolin-6-yl)oxy)piperidin-1-yl)prop-2-en-1-one] | ≤ 150 |  |
| ≤ 150 |  |  | C=CC(=O)N1CC[C@@H](Oc2cc3c(Nc4cc(-c5ccco5)ccc4OC)ncnc3cc2OC)[C@@H](F)C1 [Example 178, 1-((3S,4R)-3-fluoro-4-((4-((5-(furan-2-yl)-2-methoxyphenyl)amino)-7-methoxy-quinazolin-6-yl)oxy)piperidin-1-yl)prop-2-en-1-one] | ≤ 150 |  |
| 150 to 1000 |  |  | C=CC(=O)N1CCC(Oc2cc3c(Nc4cc(-c5ccc(C#N)o5)ccc4OC)ncnc3cc2OC)CC1 [Example 183, 5-(3-((6-((1-acryloyl-piperidin-4-yl)oxy)-7-methoxy-quinazolin-4-yl)amino)-4-methoxyphenyl) furan-2-carbonitrile] | 150 to 1000 |  |
| > 1000 |  |  | C=C(F)C(=O)N1CCC(Oc2cc3c(Nc4cc(-c5ccco5)ccc4OC)ncnc3cc2OC)CC1 [Example 184, 2-fluoro-1-(4-((4-((5-(furan-2-yl)-2-methoxyphenyl)amino)-7-methoxy-quinazolin-6-yl)oxy)piperidin-1-yl)prop-2-en-1-one] | 150 to 1000 |  |
| ≤ 150 |  |  | C=CC(=O)N1CCC(Oc2cc3c(Nc4c(OC)ccc(-c5ccco5)c4F)ncnc3cc2OC)CC1 [Example 185, 1-(4-((4-((2-fluoro-3-(furan-2-yl)-6-methoxyphenyl)amino)-7-methoxy-quinazolin-6-yl)oxy)piperidin-1-yl)prop-2-en-1-one] | ≤ 150 |  |
| 150 to 1000 |  |  | COc1ccc(-c2ccc(F)cc2F)cc1Nc1ncnc2cc(OC)c(OC3CCN(C(=O)C(F)Cl)CC3)cc12 (stereo not shown) [Example 187, 2-chloro-1-(4-((4-((2′,4′-difluoro-4-methoxy-[1,1′-biphenyl]-3-yl)amino)-7-methoxy-quinazolin-6-yl)oxy)piperidin-1-yl)-2-fluoroethan-1-one] | ≤ 150 |  |
| 150 to 1000 |  |  | COc1ccc(-c2ccco2)cc1Nc1ncnc2cc(OC)c(OC3CCN(C(=O)C(F)Cl)CC3)cc12 (stereo not shown) [Example 188, 2-chloro-2-fluoro-1-(4-((4-((5-(furan-2-yl)-2-methoxyphenyl)amino)-7-methoxy-quinazolin-6-yl)oxy)piperidin-1-yl)ethan-1-one] | ≤ 150 |  |
| 150 to 1000 |  |  | C=CC(=O)N1CCC(Oc2cc3c(Nc4cc(-c5ccc6ccsc6c5)ccc4OC)ncnc3cc2OC)CC1 [Example 193, 1-(4-((4-((5-(benzo[b]thiophen-6-yl)-2-methoxyphenyl)amino)-7-methoxy-quinazolin-6-yl)oxy)piperidin-1-yl)prop-2-en-1-one] | ≤ 150 |  |
| ≤ 150 |  |  | C=CC(=O)N1CCC(Oc2cc(OC)cc3ncnc(Nc4cc(-c5ccco5)ccc4OC)c23)C(F)(F)C1 (stereo not shown) [Example 195, 1-(3,3-difluoro-4-((4-((5-(furan-2-yl)-2-methoxyphenyl)amino)-7-methoxy-quinazolin-5-yl)oxy)piperidin-1-yl)prop-2-en-1-one] | ≤ 150 |  |
|  |  | ≤ 150 | C=CC(=O)Nc1cc2c(Nc3cc(-c4ccn5ncnc5c4)ccc3OC)ncnc2cc1OC [Example 287, N-(4-((5-([1,2,4]triazolo[1,5-a]pyridin-7-yl)-2-methoxyphenyl)amino)-7-methoxyquinazolin-6-yl)acrylamide] | > 1000 |  |
|  |  | 150 to 1000 | C=CC(=O)Nc1cc2c(Nc3cc(-c4ccc5occc5c4)ccc3OC)ncnc2cc1OC [Example 288, N-(4-((5-(benzofuran-5-yl)-2-methoxyphenyl)amino)-7-methoxyquinazolin-6-yl)acrylamide] | > 1000 |  |
|  |  | ≤ 150 | C=CC(=O)Nc1cc2c(Nc3cc(-c4ccco4)ccc3OC)ncnc2cc1OC [Example 289, N-(4-((5-(furan-2-yl)-2-methoxyphenyl)amino)-7-methoxyquinazolin-6-yl)acrylamide] | ≤ 150 |  |
|  |  | 150 to 1000 | C=CC(=O)Nc1cc2c(Nc3cc(-c4ccoc4C)ccc3OC)ncnc2cc1OC [Example 290, N-(7-methoxy-4-((2-methoxy-5-(2-methylfuran-3-yl)phenyl)amino)quinazolin-6-yl)acrylamide] | ≤ 150 |  |
|  |  | > 1000 | C=CC(=O)Nc1cc2c(Nc3cc(-c4ccco4)ccc3OC)c(C#N)cnc2cc1OCC [Example 291, N-(3-cyano-7-ethoxy-4-((5-(furan-2-yl)-2-methoxyphenyl)amino)quinolin-6-yl)acrylamide] | ≤ 150 |  |
|  |  | 150 to 1000 | C=CC(=O)N1CC2(C1)CN(c1cc3c(Nc4cc(-c5ccco5)ccc4OC)ncnc3cc1OC)C(=O)O2 [Example 330, 2-acryloyl-7-(4-((5-(furan-2-yl)-2-methoxyphenyl)amino)-7-methoxyquinazolin-6-yl)-5-oxa-2,7-diazaspiro[3.4]octan-6-one] | 150 to 1000 |  |

| Compound | GI50 ([1]; Homo sapiens) [nM] | GI50 [1] [nM] | GI50 [3] [nM] | GI50 ([2]; Homo sapiens) [nM] | GI50 [2] [nM] |
| --- | --- | --- | --- | --- | --- |
| C=CC(=O)N1[C@@H]2CC[C@H]1C[C@@H](Oc1cc3c(Nc4cc(-c5ccco5)ccc4OC)ncnc3cc1OC)C2 [Example 167, 1-((1R,3r,5S)-3-((4-((5-(furan-2-yl)-2-methoxyphenyl)amino)-7-methoxy-quinazolin-6-yl)oxy)-8-azabicyclo [3.2.1]octan-8-yl)prop-2-en-1-one] | ≤ 150 |  |  | ≤ 150 |  |
| C=CC(=O)N1[C@@H]2CC[C@H]1C[C@H](Oc1cc3c(Nc4cc(-c5ccco5)ccc4OC)ncnc3cc1OC)C2 [Example 172, 1-((1R,3s,5S)-3-((4-((5-(furan-2-yl)-2-methoxyphenyl)amino)-7-methoxy-quinazolin-6-yl)oxy)-8-azabicyclo [3.2.1]octan-8-yl)prop-2-en-1-one] | ≤ 150 |  |  | ≤ 150 |  |
